{"source": "paper PMC9530166", "about": "“Allosteric regulation of glycogen breakdown by the second messenger cyclic di-GMP” (Nature Communications, 2022)", "key": {"His6-GlgXD342A+E378A": {"system": "His6-GlgXD342A+E378A", "test": "BCA reducing-end enzyme assay, GlgXD342A+E378A", "format": "biochemical, Streptomyces venezuelae", "conditions": "50 µM c-di-GMP, 0.05% glycogen from rabbit, 1 µM enzyme", "method": "Fig. 2 c-di-GMP stimulates glycogen breakdown activity of GlgX in vitro. a Bicinchoninic acid (BCA) in vitro enzyme assay. The purple copper bicinchoninate complex indicating GlgX-mediated generation of reducing ends in glycogen was quantified by photometric measurements at 562 nm. A562 values were converted into reducing ends [µM glucose equivalents] based on D-glucose as a standard. Reactions contained 0.05% (w/v) glycogen from rabbit, 1 µM GlgX and increasing concentrations of c-di-GMP (0–100 µM). Source data are provided as a Source data file. b BCA assay containing 0.05% of either glycogen from rabbit, pullulan, amylopectin from maize or amylose from potato as substrates. Where appropriate, 1 µM GlgX or 50 µM c-di-GMP were added to the reaction samples. Source data are provided as a Source data file. c BCA assay as in a with or without c-di-GMP (50 µM), 0.05% glycogen from rabbit (S) and 1 µM Vnz25270, GlgX, the active site mutants GlgXD342A, GlgXE378A, GlgXD342A+E378A, or the c-di-GMP-binding mutant variant GlgXDETR49-52 as indicated. […]\nHydrolysis of carbohydrates was assessed in vitro by measuring the accumulation of reducing sugar ends using the BCA assay[42] and D-glucose as a standard for calibration (Supplementary Fig. 11). […] 125 μl sample aliquots were transferred in duplicates to a 96 well plate and the absorbance at 562 nm was measured using a plate reader."}, "GlgXE47A-R49A": {"system": "GlgXE47A-R49A", "test": "Fluorescence polarization binding, GlgXE47A-R49A", "set-up": "species or system Streptomyces venezuelae", "text": "Fig. 5 Structure of the S. venezuelae GlgX-c-di-GMP complex. a Ribbon diagram of the S. venezuelae GlgX-c-di-GMP complex with one GlgX subunit colored cyan and the other salmon. Shown as sticks are the c-di-GMP molecules bound at each end of the antiparallel dimer. […] There was clear density for each c-di-GMP molecule. b Close up of the GlgX-c-di-GMP binding interaction. Key residues mediating contacts to the c-di-GMP are shown as sticks and labeled. Hydrogen bonds from GlgX residues that specify binding to the guanine are indicated by yellow dashed lines. c Fluorescence polarization (FP) binding isotherm showing interaction of GlgX, GlgXE47A-R49A and GlgXR438A-R579A for F-c-di-GMP in red, green and blue respectively. Also shown is the binding isotherm for GlgX binding to F-c-di-AMP in black. […] The y-axis and x-axis are millipolarization (mP) units and GlgX concentration (μM), respectively. Shown are representative binding curves for each. The experiments were performed in technical triplicates and the error between measurements reported. […]\nThus, we used this F-tagged c-di-GMP in fluorescence polarization (FP) studies to quantify the interaction between GlgX and c-di-GMP. […] To ensure that the presence of the fluorescent tag was not impacting the GlgX interaction with c-di-GMP we used microscale thermophoresis (MST) to quantify c-di-GMP binding to GlgX. […]"}}, "data": [{"smiles": "Nc1nc2c(ncn2[C@@H]2O[C@@H]3CO[P@](=O)(O)O[C@H]4[C@@H](O)[C@H](n5cnc6c(=O)[nH]c(N)nc65)O[C@@H]4CO[P@](=O)(O)O[C@H]3[C@H]2O)c(=O)[nH]1", "note": "[c-di-GMP, bis-(3′−5′)-cyclic diguanosine monophosphate]", "values": [{"measurement": "stimulation of enzyme activity by c-di-GMP", "setting": "His6-GlgXD342A+E378A", "result": "could not be stimulated"}, {"measurement": "binding to mutant in FP", "setting": "GlgXE47A-R49A", "result": "weak, nonsaturable binding"}]}]}
